Assay results: patent publication US20230027066A1 (Urovant Sciences GmbH, priority 2019, published 2023)

Test system: men and women with overactive bladder
Assay: Phase 3 study of vibegron 75 mg vs placebo and tolterodine ER 4 mg, 12 weeks, efficacy (voiding and urine volume diary)
Assay type: in vivo, human
Settings: for Urgency 50% responders, Active - Placebo CMH Difference / Patients with at Least 50% Reduction in Urgency Episodes, Adjusted (%) / Patients with at Least 50% Reduction in Urgency Episodes, Adjusted n / Patients with at Least 50% Reduction in Urgency Episodes, Unadjusted (%) / Patients with at Least 50% Reduction in Urgency Episodes, Unadjusted n: Dry population; for Urgency Episodes, Week 12 CFB Mean: descriptive statistics; for Micturitions: LS Mean (95% CI): Table 32, week 12
Description: Enrollment of patients included individuals with OAB Wet (those with UUI, the involuntary loss of urine accompanied by urgency) and OAB Dry (those without UUI). A total of 1,518 patients were randomized across 215 study sites into one of three groups for a 12-week treatment period.
The study consisted of a Screening Period (1 to 5 weeks), a single-blind Run-in Period (2 weeks), a randomized double-blind Treatment Period (12 weeks), and a Follow-up Period (4 weeks).
Tolterodine ER 4 mg was the active control. […] Between the Baseline and Week 12 Visits, patients had study assessments at Week 4 and Week 8.
The Patient Voiding Diary was used by participants (via the eDiary or paper Diary) to record the frequency of daily OAB symptoms including all micturitions, urgency, incontinence, and main reason for incontinence by selecting the respective box for each symptom occurring during the course of a given day and night.
Urine volume data were collected separately by patients using the Urine Volume component of the eDiary, or the paper Urine Volume Chart. The Urine Volume Chart is a tool used in clinical practice and clinical investigation to assess voiding functions over a 24-hour period and is regarded as a useful instrument in the investigation of patients with voiding symptoms. Urine volume may be collected during any one (1) of the 7 Diary Days prior to the visit, and it should be recorded for ˜24 hours starting from the time the patient gets up for the day and continues until the time the patient gets up for the day on the next day.
For the purpose of this study, the number of micturitions was defined as the number of times a patient has voided in the toilet as indicated on the Patient Voiding Diary. Average daily micturitions were calculated using the daily entries in the Patient Voiding Diary, which was completed over the 7 days prior to each study visit. Average daily number of micturitions were calculated as the total number of micturitions that occurred on a Complete Diary Day divided by the number of Complete Diary Days in the Patient Voiding Diary. A complete diary day required confirmation by the patient in the Patient Voiding Diary that all voids and leakages had been recorded for the diary day. Baseline was defined as the average number of micturitions occurring during the last evaluable diary prior to the Baseline Visit.
The number of UUI episodes was defined as the number of times a patient had checked “urge” as the reason for accidental urine leakage. Average daily UUI episodes at each study visit were calculated in the same manner as described above for the micturition endpoint. The UUI endpoint were analyzed using only OAB Wet patients.
For the analysis of the co-primary endpoints (change from baseline in average number of daily micturitions at Week 12 and change from baseline in average number of daily urge urinary incontinence episodes at Week 12, and placebo adjustment of each), a mixed model for repeated measure (MMRM) with restricted maximum likelihood estimation was used. This model corrects for dropout and accounts for the fact that measurements taken on the same patient over time tend to be correlated by using all available information on patients within the same covariate set to derive an estimate of the treatment effect for a dropout-free population. The analysis model for each efficacy endpoint includes terms for treatment, visit, OAB Type (Wet vs Dry), Sex (Female vs Male), Region (US vs Rest of World), baseline score, and interaction of visit by treatment.
Primary inferences were drawn from treatment differences for the changes from baseline derived from the MMRM models at Week 12. As part of secondary objectives, the treatment differences for each post baseline visit were also derived using the same MMRM model. […]

[1] = No prior anticholinergic use during the prior 12 months
[2] = No prior mirabegron use during the prior 12 months
[3] = Overall, events of Events/Censored
[4] = Prior anticholinergic use during the prior 12 months
[5] = Prior mirabegron use during the prior 12 months
[6] = Week 2, events of Events/Censored
[7] = Week 4, events of Events/Censored

Cc1ccc(O)c([C@H](CCN(C(C)C)C(C)C)c2ccccc2)c1 [Tolterodine ER, tolterodine, reference compound]
Urgency 50% responders, Active - Placebo CMH Difference (baseline to Week 2): 2.8 | Patients with at Least 50% Reduction in Urgency Episodes, Adjusted (%) (baseline to Week 4): 20.6% | Patients with at Least 50% Reduction in Urgency Episodes, Adjusted n (baseline to Week 4): 20 | Patients with at Least 50% Reduction in Urgency Episodes, Unadjusted (%) (baseline to Week 4): 25.5% | Patients with at Least 50% Reduction in Urgency Episodes, Unadjusted n (baseline to Week 4): 25 | Urgency 50% responders, Active - Placebo CMH Difference (baseline to Week 4): 3.5 | Patients with at Least 50% Reduction in Urgency Episodes, Adjusted (%) (baseline to Week 8): 28.5% | Patients with at Least 50% Reduction in Urgency Episodes, Adjusted n (baseline to Week 8): 28 | Patients with at Least 50% Reduction in Urgency Episodes, Unadjusted (%) (baseline to Week 8): 30.6% | Patients with at Least 50% Reduction in Urgency Episodes, Unadjusted n (baseline to Week 8): 30 | Urgency 50% responders, Active - Placebo CMH Difference (baseline to Week 8): 8.7 | Patients with at Least 50% Reduction in Urgency Episodes, Adjusted (%) (baseline to Week 12): 29.0% | Patients with at Least 50% Reduction in Urgency Episodes, Adjusted n (baseline to Week 12): 28 | Patients with at Least 50% Reduction in Urgency Episodes, Unadjusted (%) (baseline to Week 12): 32.7% | Patients with at Least 50% Reduction in Urgency Episodes, Unadjusted n (baseline to Week 12): 32 | Urgency 50% responders, Active - Placebo CMH Difference (baseline to Week 12): 5.8 | Urgency Episodes, Week 12 CFB Mean (Males with BPH): −3.29 | Urgency Episodes, Week 12 CFB Mean (Males without BPH): −2.32 | Urgency Episodes, Week 12 CFB Mean (No Prior ACH Use in last 12 Mo.): −2.62 | Urgency Episodes, Week 12 CFB Mean (No Prior B3 Agonist Use in last 12 Mo.): −2.56 | Micturitions, 12-week change [1]: −1.8 | UUI Episodes, 12-week change [1]: −1.9 | Micturitions, 12-week change [2]: −1.8 | UUI Episodes, 12-week change [2]: −1.8 | Overall Time to First 50% Decrease in Urgency Episodes, 25th Percentile (Overall): 4.3 weeks | Overall Time to First 50% Decrease in Urgency Episodes, 50th Percentile (Overall): 12.6 weeks | Overall Time to First 50% Decrease in Urgency Episodes, Median (95% CI) (Overall): 12.6 (12.3 to 12.9) weeks | Overall Time to First 100% Decrease in UUI Episodes, 25th Percentile (Overall): 12.1 weeks | Overall Time to First 100% Decrease in UUI Episodes, 75th Percentile (Overall): 16.0 weeks | Overall Time to First 100% Decrease in UUI Episodes, Median (95% CI) (Overall): 13.1 (12.7 to 16.0) weeks | Urgency Episodes, Week 12 CFB Mean (Overall): −2.57 | First 50% Decrease in Urgency Episodes, Events [3]: 187/230 | First 100% Decrease in UUI Episodes, Events [3]: 93/226 | Urgency Episodes, Week 12 CFB Mean (Prior ACH Use in last 12 Mo.): −2.23 | Urgency Episodes, Week 12 CFB Mean (Prior B3 Agonist Use in last 12 Mo.): −2.72 | Micturitions, 12-week change [4]: −1.52 | UUI Episodes, 12-week change [4]: −0.98 | Micturitions, 12-week change [5]: −1.30 | UUI Episodes, 12-week change [5]: −0.65 | Micturitions: LS Mean (95% CI) (Age <65 years): −0.2 (−0.6 to 0.2) | Micturitions: LS Mean (95% CI) (Age ≥65 years): −0.3 (−0.8 to 0.2) | Micturitions: LS Mean (95% CI) (Age ≥75 years (posthoc analysis)): −0.4 (−1.4 to 0.6) | Micturitions: LS Mean (95% CI) (Females): −0.3 (−0.7 to 0.0) | Micturitions: LS Mean (95% CI) (Males): 0.1 (−0.7 to 0.9) | Micturitions: LS Mean (95% CI) (Non-White): −0.1 (−0.8 to 0.6) | Micturitions: LS Mean (95% CI) (OAB Type: Dry): −0.3 (−1.0 to 0.3) | Micturitions: LS Mean (95% CI) (OAB Type: Wet): −0.3 (−0.6 to 0.1) | Micturitions: LS Mean (95% CI) (Overall): −0.3 (−0.6 to 0.1) | Micturitions: LS Mean (95% CI) (Region: Non-US): 0.4 (−0.6 to 1.4) | Micturitions: LS Mean (95% CI) (Region: US): −0.3 (−0.7 to 0.0) | Micturitions: LS Mean (95% CI) (White): −0.3 (−0.7 to 0.0) | Average Daily Number of Total Incontinence, Mean (SD) (Week 2): 2.75 (2.743) | Average daily number of urgency episodes, Mean (SD) (Week 2): 6.30 (3.989) | Average volume voided per micturition, Active - Placebo LS Mean Difference (Week 2): 10.2 mL | Change from Baseline in Average Daily Number of Total Incontinence, LS Mean (SE) (Week 2): −1.3 (0.15) | Change from baseline in average daily number of urgency episodes, LS Mean (Week 2): −1.5 | Change from baseline in average volume voided per micturition, LS Mean (SE) (Week 2): 12.5 (3.20) mL | Estimated Incidence of Subjects with 50% Decrease from Baseline (urgency episodes) (Week 2): 18.0 | Estimated Incidence of Subjects with 100% Decrease from Baseline (UUI episodes) (Week 2): 5.6 | Total Incontinence, Active - Placebo LS Mean Difference (SE) (Week 2): −0.5 (0.15) | Urgency episodes, Active - Placebo LS Mean Difference (Week 2): −0.6 | First 50% Reduction in Urgency Episodes, Events [6]: 75/342 | First 100% Reduction in UUI Episodes, Events [6]: 18/301 | Average volume voided per micturition, Week 2 Mean (SD) (Week 2, vibegron 75 mg, tolterodine ER 4 mg): 156.7 (71.23) mL | Average Daily Number of Total Incontinence, Mean (SD) (Week 4): 2.54 (2.784) | Average daily number of urgency episodes, Mean (SD) (Week 4): 6.00 (4.097) | Average volume voided per micturition, Active - Placebo LS Mean Difference (Week 4): 8.9 mL | Average volume voided per micturition, Week 4 Mean (SD) (Week 4): 160.2 (72.76) mL | Change from Baseline in Average Daily Number of Total Incontinence, LS Mean (SE) (Week 4): −1.6 (0.15) | Change from baseline in average daily number of urgency episodes, LS Mean (Week 4): −1.8 | Change from baseline in average volume voided per micturition, LS Mean (SE) (Week 4): 13.3 (3.39) mL | Estimated Incidence of Subjects with 50% Decrease from Baseline (urgency episodes) (Week 4): 19.4 | Estimated Incidence of Subjects with 100% Decrease from Baseline (UUI episodes) (Week 4): 7.6 | Total Incontinence, Active - Placebo LS Mean Difference (SE) (Week 4): −0.5 (0.15) | Urgency episodes, Active - Placebo LS Mean Difference (Week 4): −0.7 | First 50% Reduction in Urgency Episodes, Events [7]: 81/336 | First 100% Reduction in UUI Episodes, Events [7]: 24/295 | Average Daily Number of Total Incontinence, Mean (SD) (Week 8): 2.20 (2.673)
